Biological target: T1, mCRIS CNBD (cit-mCNBD-cer FRET sensor) (Mus musculus, UniProt Q9D5U8)
T1 construct: gene Cnbd2; CNBD, aa 202-353 of mCRIS cDNA from mouse testis; citrine at N terminus, cerulean-His10 at C terminus (also printed cer-mCNBD-cit); expressed in CHO cells
Experiment: intramolecular FRET (cerulean/citrine ratio), live-cell imaging
Format: cell-based
Details: 3 mM 8-Br-cAMP perfused on CHO cells, 10 min

T1 sequence (Q9D5U8 202-353): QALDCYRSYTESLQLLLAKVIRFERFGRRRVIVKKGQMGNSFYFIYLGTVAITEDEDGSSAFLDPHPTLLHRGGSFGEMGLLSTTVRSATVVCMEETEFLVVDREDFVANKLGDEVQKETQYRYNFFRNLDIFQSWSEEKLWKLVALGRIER

Nc1ncnc2c1nc(Br)n2[C@@H]1O[C@@H]2COP(=O)(O)O[C@H]2[C@H]1O [8-Br-cAMP]
change in FRET (normalized emission ratio): Addition of 8-Br-cAMP, a membrane-permeable cAMP analogue, or NKH477, an activator of adenylyl cyclases, changed

Source: publication PMC3854790, “CRIS—A Novel cAMP-Binding Protein Controlling Spermiogenesis and the Development of Flagellar Bending” (PLoS Genetics, 2013)
